Assay results taken from patent US8394831B2, “Carbonylamino-derivatives as novel inhibitors of histone deacetylase” (Janssen Pharmaceutica, N.V., priority 2002, dated 2013).

Legend:
[1] = tested on: A2780 ovarian carcinoma cells; experiment: Antiproliferative activity on A2780 cells (MTT); format: cell-based, human; conditions: four days of incubation; for IC50: Homo sapiens, 96 h, read-out: Cellular activity pIC50 (converted)
Procedure: Cellular activity of the compounds of formula (I) was determined on A2780 tumour cells using a colorimetric assay for cell toxicity or survival (Mosmann Tim, Journal of Immunological Methods 65: 55-63, 1983)(see example C.2).
All compounds tested were dissolved in DMSO and further dilutions were made in culture medium. Final DMSO concentrations never exceeded 0.1% (v/v) in cell proliferation assays. Controls contained A2780 cells and DMSO without compound and blanks contained DMSO but no cells. MTT was dissolved at 5 mg/ml in PBS. A glycine buffer comprised of 0.1 M glycine and 0.1 M NaCl buffered to pH 10.5 with NaOH (1 N) was prepared (all reagents were from Merck).
The human A2780 ovarian carcinoma cells (a kind gift from Dr. T. C. Hamilton [Fox Chase Cancer Centre, Pennsylvania, USA]) were cultured in RPMI 1640 medium supplemented with 2 mM L-glutamine, 50 μg/ml gentamicin and 10% fetal calf serum. Cells were routinely kept as monolayer cultures at 37° C. in a humidified 5% CO2 atmosphere. Cells were passaged once a week using a trypsin/EDTA solution at a split ratio of 1:40. All media and supplements were obtained from Life Technologies. Cells were free of mycoplasma contamination as determined using the Gen-Probe Mycoplasma Tissue Culture kit (supplier: BioMérieux).
Cells were seeded in NUNC™ 96-well culture plates (Supplier: Life Technologies) and allowed to adhere to the plastic overnight. Densities used for plating were 1500 cells per well in a total volume of 200 μl medium. After cell adhesion to the plates, medium was changed and drugs and/or solvents were added to a final volume of 200 Following four days of incubation, medium was replaced by 200 μl fresh medium and cell density and viability was assessed using an MTT-based assay. To each well, 25 μl MTT solution was added and the cells were further incubated for 2 hours at 37° C. The medium was then carefully aspirated and the blue MTT-formazan product was solubilized by addition of 25 μl glycine buffer followed by 100 μl of DMSO. […] Within an experiment, the results for each experimental condition are the mean of 3 replicate wells. For initial screening purposes, compounds were tested at a single fixed concentration of 10^−6 M. For active compounds, the experiments were repeated to establish full concentration-response curves. For each experiment, controls (containing no drug) and a blank incubation (containing no cells or drugs) were run in parallel. The blank value was subtracted from all control and sample values. For each sample, the mean value for cell growth (in absorbance units) was expressed as a percentage of the mean value for cell growth of the control. […] Herein the effects of test compounds are expressed as pIC50 (the negative log value of the IC50-value).

[2] = target: histone deacetylase (HeLa nuclear extracts); experiment: In vitro assay for inhibition of histone deacetylase; format: biochemical; parameters: key: pIC50 = -log IC50; conditions: [3H]acetylated histone H4 peptide substrate
Procedure: The in vitro assay for inhibition of histone deacetylase (see example C.1) measures the inhibition of HDAC enzymatic activity obtained with the compounds of formula (I).
HeLa nuclear extracts (supplier: Biomol) were incubated at 60 μg/ml with 2×10^−8 M of radiolabeled peptide substrate. As a substrate for measuring HDAC activity a synthetic peptide, i.e. the amino acids 14-21 of histone H4, was used. The substrate is biotinylated at the NH2-terminal part with a 6-aminohexanoic acid spacer, and is protected at the COOH-terminal part by an amide group and specifically [^3H]acetylated at lysine 16. The substrate, biotin-(6-aminohexanoic)Gly-Ala-([^3H]-acetyl-Lys-Arg-His-Arg-Lys-Val-NH2), was added in a buffer containing 25 mM Hepes, 1 M sucrose, 0.1 mg/ml BSA and 0.01% Triton X-100 at pH 7.4. After 30 min the deacetylation reaction was terminated by the addition of HCl and acetic acid. (final concentration 0.035 mM and 3.8 mM respectively). After stopping the reaction, the free ^3H-acetate was extracted with ethylacetate. After mixing and centrifugation, the radioactivity in an aliquot of the upper (organic) phase was counted in a β-counter. For each experiment, controls (containing HeLa nuclear extract and DMSO without compound), a blank incubation (containing DMSO but no HeLa nuclear extract or compound) and samples (containing compound dissolved in DMSO and HeLa nuclear extract) were run in parallel. In first instance, compounds were tested at a concentration of 10^−5M. […] In each test the blank value was subtracted from both the control and the sample values. The control sample represented 100% of substrate deacetylation. For each sample the radioactivity was expressed as a percentage of the mean value of the controls. […] Herein the effects of test compounds are expressed as pIC50 (the negative log value of the IC50-value).

[3] = Kinetic solubility in aqueous media; format: physicochemical; conditions: aqueous buffer, kinetic from dmso stock; phosphate citrate buffer pH 7.4, turbidity by nephelometer; read-out: Solubility Score
Procedure: Kinetic solubility in aqueous media measures the ability of a compound to stay in aqueous solution upon dilution (see example C.3).
DMSO-stock solutions are diluted with a single aqueous buffer solvent in 3 consecutive steps. For every dilution turbidity is measured with a nephelometer.
In the first dilution step, 10 μl of a concentrated stock-solution of the active compound, solubilized in DMSO (5 mM), was added to 100 μl phosphate citrate buffer pH 7.4 and mixed. In the second dilution step, an aliquot (20 μl) of the first dilution step was further dispensed in 100 μl phosphate citrate buffer pH 7.4 and mixed. Finally, in the third dilution step, a sample (20 μl) of the second dilution step was further diluted in 100 μl phosphate citrate buffer pH 7.4 and mixed. All dilutions were performed in 96-well plates Immediately after the last dilution step the turbidity of the three consecutive dilution steps were measured with a nephelometer. Dilution was done in triplicate for each compound to exclude occasional errors. Based on the turbidity measurements a ranking is performed into 3 classes. Compounds with high solubility obtained a score of 3 and for this compounds the first dilution is clear. Compounds with medium solubility obtained a score of 2. For these compounds the first dilution is unclear and the second dilution is clear.

IC50 [1] [nM] | Enzyme activity pIC50 [2] | solubility [3] [µM] | melting point [°C] | Cellular activity pIC50 [1] | Compound
1790 | 6.794 | > 454 |  |  | COc1cc(C(=O)NC2CCN(c3ccc(C(=O)NO)cn3)CC2)nc2ccccc12 [Co. No. 2]
 | 6.861 |  |  | 5.664 | O=C(NO)c1ccc(N2CCC(NC(=O)c3ccc4ccccc4c3)CC2)nc1 [compound 5]
 | 6.951 |  |  | 5.86 | O=C(NO)c1ccc(N2CCC(NC(=O)c3cc4ccccc4cn3)CC2)nc1 [compound 6]
 | 6.416 |  |  | 5.331 | Cn1c(C(=O)NC2CCN(c3ccc(C(=O)NO)cn3)CC2)cc2ccccc21 [compound 7]
 | 6.774 |  |  | 5.579 | Cn1cc(C(=O)NC2CCN(c3ccc(C(=O)NO)cn3)CC2)c2ccccc21 [compound 9]
 | 6.909 |  |  | 5.562 | O=C(CC(c1ccccc1)c1ccccc1)NC1CCN(c2ccc(C(=O)NO)cn2)CC1 [compound 12]
 | 7.061 |  |  | <5 | O=C(Cc1c[nH]c2ccccc12)NC1CCN(c2ccc(C(=O)NO)cn2)CC1 [compound 13]
 | 6.611 |  |  | 5.175 | O=C(NO)c1ccc(N2CCC(NC(=O)C3CCc4ccccc43)CC2)nc1 (centres unmarked) [compound 14]

Further lines, the compound ahead of its results:

Compound | IC50 [1] [nM] | Enzyme activity pIC50 [2] | solubility [3] [µM] | melting point [°C] | Cellular activity pIC50 [1]
O=C(NO)c1ccc(N2CCC(NC(=O)c3ccc4ccccc4c3)CC2)cc1 [Co. No. 1] | 4510 | 5.649 |  |  | 
O=C(NO)c1cnc(N2CCC(CNC(=O)c3ccc4ccccc4c3)CC2)nc1 [Co. No. 3] | 132 | 8.103 | < 75.8 | 226 | 
O=C(NO)c1ccc(N2CCC(NC(=O)c3cc4cc(F)ccc4[nH]3)CC2)nc1 [compound 8] |  | 6.94 |  |  | 5.497
COc1ccc2[nH]c(C(=O)NC3CCN(c4ccc(C(=O)NO)cn4)CC3)cc2c1 [compound 10] |  | 7.19 |  |  | 5.747
O=C(NO)c1cnc(N2CC[C@H](O)[C@H](CNS(=O)(=O)c3ccc4ccccc4c3)C2)nc1 [compound 11] |  | 6.215 |  |  | <5
